Results on 13 compounds are retold here after US20140051679A1, “KINASE INHIBITORS AND METHOD OF TREATING CANCER WITH SAME” (UNIVERISTY HEALTH NETWORKS, priority 2011, published 2014).

One assay deals with T1, human TTK (Homo sapiens, UniProt P33981).
T1 construct: amino terminal GST fusion of full length human TTK; purchased Invitrogen
T1 sequence (P33981 1-857): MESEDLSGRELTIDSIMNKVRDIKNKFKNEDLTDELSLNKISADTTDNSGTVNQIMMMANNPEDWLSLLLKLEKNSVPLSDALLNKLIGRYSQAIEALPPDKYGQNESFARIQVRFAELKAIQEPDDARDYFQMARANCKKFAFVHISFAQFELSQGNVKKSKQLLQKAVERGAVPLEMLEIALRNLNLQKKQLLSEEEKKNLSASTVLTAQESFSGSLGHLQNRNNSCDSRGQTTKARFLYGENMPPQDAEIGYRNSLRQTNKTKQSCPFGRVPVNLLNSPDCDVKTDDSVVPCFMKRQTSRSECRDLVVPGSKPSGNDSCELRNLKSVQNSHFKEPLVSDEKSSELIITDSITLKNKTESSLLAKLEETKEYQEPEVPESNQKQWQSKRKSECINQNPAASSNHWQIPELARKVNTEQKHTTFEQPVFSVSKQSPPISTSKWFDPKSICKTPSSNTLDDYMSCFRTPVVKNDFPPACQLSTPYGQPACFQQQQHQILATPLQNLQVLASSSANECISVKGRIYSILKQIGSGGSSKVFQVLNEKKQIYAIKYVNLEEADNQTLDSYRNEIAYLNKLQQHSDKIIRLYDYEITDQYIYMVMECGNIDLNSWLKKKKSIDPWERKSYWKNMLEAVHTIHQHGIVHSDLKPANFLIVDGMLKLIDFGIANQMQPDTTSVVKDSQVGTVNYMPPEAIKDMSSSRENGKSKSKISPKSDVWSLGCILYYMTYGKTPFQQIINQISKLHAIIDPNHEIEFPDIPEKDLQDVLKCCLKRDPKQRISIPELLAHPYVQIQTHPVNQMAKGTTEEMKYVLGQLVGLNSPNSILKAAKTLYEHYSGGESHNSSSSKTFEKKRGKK
Briefly: TTK inhibition assay (indirect ELISA). In kind it is biochemical. As to conditions: GST-TTK 0.68 nM, 16 μM ATP; read-out: IC50 Ranges TTK. A general note: An ELISA detects its analyte on a solid surface through an enzyme-linked reagent.

In a further assay the target is T2, human PLK4 (Homo sapiens, UniProt O00444).
T2 construct: amino terminal GST fusion of residues 1-391 of human PLK4; made in house; host or cells: E. coli
T2 sequence (O00444 1-391): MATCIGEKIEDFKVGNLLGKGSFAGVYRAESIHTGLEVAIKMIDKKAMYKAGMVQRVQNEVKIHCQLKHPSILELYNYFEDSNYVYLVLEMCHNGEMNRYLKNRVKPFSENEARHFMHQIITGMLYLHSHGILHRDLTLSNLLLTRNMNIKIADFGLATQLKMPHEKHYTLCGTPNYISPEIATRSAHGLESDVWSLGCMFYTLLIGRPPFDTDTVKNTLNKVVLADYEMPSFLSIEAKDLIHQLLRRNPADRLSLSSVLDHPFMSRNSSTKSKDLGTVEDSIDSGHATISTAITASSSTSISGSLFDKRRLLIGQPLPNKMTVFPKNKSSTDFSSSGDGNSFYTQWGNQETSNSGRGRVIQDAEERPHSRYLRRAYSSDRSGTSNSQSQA
In words: PLK4 inhibition assay (indirect ELISA). The assay is classed as biochemical. The settings on record: GST-PLK4 4 nM, 15 μM ATP; read-out: IC50 Ranges PLK4. In short, it runs like this:
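Dephosphorylated GST-tagged human PLK4 (residues 1-391, E. coli), 4 nM, preincubated 15 min with compound, then reacted 30 min with 15 μM ATP on MBP-coated plates (50 mM HEPES pH 7.5, 10 mM MgCl2, 0.01% Brij 35). Phospho-MBP detected by antibody ELISA at 450 nm. Tested at 10 μM or 10-point titrations; IC50 from 4-parameter logistic fit.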

Assay [1] has as its system MDA-MB-231 breast cancer cells. Briefly: Cell growth inhibition, Sulforhodamine B assay, MDA-MB-231. The assay is classed as cell-based. As to conditions: Homo sapiens, 120 h, 5 days culture, SRB assay, read-out: Cell Line GI50 Range MDA-MB-231. (In SRB staining, fixed cells bind dye roughly in proportion to their protein.)
Assay [2] concerns MDA-MB-468 breast cancer cells. Briefly: Cell growth inhibition, Sulforhodamine B assay, MDA-MB-468. In kind it is cell-based. The settings on record: Homo sapiens, 120 h, 5 days culture, SRB assay, read-out: Cell Line GI50 Range MDA-MB-468.
Assay [3] deals with HCT116 colon cancer cells. In words: Cell growth inhibition, Sulforhodamine B assay, HCT116. In kind it is cell-based. The settings on record: Homo sapiens, HCT-116, 120 h, 5 days culture, SRB assay, read-out: Cell Line GI50 Range HCT116.
The subject of the next assay is HT29 colon cancer cells. In words: Cell growth inhibition, Sulforhodamine B assay, HT29. As to conditions: Homo sapiens, HT-29, 120 h, 5 days culture, SRB assay, read-out: Cell Line GI50 Range HT29. In kind it is cell-based.
Assay [4] relates to OVCAR-3 ovarian cancer cells. In words: Cell growth inhibition, Sulforhodamine B assay, OVCAR-3. The settings on record: Homo sapiens, 120 h, 5 days culture, SRB assay, read-out: Cell Line GI50 Range OVCAR-3. The assay is classed as cell-based.
The target of the next assay is T3, Aurora B (Homo sapiens, UniProt Q96GD4).
T3 construct: purchased Invitrogen PV3970
Briefly: Aurora B inhibition assay (Z-Lyte). The assay is classed as biochemical. The settings on record: 28 nM Aurora B, 128 μM ATP; read-out: IC50 Ranges Aurora B. On the procedure:
Aurora B inhibition was determined using the Z-Lyte assay kit from Invitrogen. The assay was performed using the recommended manufacturer's instructions with 128 μM ATP and 28 nM Aurora B (Invitrogen cat #PV3970). The % inhibition values were determined according to the manufacturer's directions and IC50 values were obtained using a non-linear 4 point logistic curve fit (XLfit4, IDBS)

The IC50 is the concentration needed to halve the response being measured. As a reminder, the GI50 is the concentration that inhibits growth by half.

SMILES strings stand for the structures. A value given as a limit tells only on which side of the number the result lay.

T3 sequence (Q96GD4 whole entry): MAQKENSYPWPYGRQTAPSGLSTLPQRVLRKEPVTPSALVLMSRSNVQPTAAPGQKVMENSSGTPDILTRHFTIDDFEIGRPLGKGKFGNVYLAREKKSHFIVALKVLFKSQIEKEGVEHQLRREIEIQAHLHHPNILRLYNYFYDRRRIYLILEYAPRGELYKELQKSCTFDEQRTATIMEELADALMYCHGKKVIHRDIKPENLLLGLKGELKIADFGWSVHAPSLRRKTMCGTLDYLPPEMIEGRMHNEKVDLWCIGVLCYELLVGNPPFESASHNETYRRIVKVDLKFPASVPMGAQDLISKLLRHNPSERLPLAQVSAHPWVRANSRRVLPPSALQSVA

Regarding `CN1CCN(Cc2ccc(-c3n[nH]c4ccc(NC(=O)C(c5ccsc5)N5CCCC5)cc34)cc2)CC1` (centres unmarked) [Example A67, N-(3-(4-((4-methylpiperazin-1-yl)methyl)phenyl)-1H-indazol-5-yl)-2-(pyrrolidin-1-yl)-2-(thiophen-3-yl)acetamide], the IC50 at human TTK and at human PLK4 was not above 5 µM throughout. Also, the GI50 in assay [1] is not above 5 µM; in assay [2] it was not above 5 µM; in assay [3], not above 5 µM; with HT29 colon cancer cells, not above 5 µM; in assay [4], 5 to 20 µM.
Consider `CN1CCC(Oc2ccc(-c3n[nH]c4ccc(NC(=O)Nc5c(Cl)cccc5Cl)cc34)cc2)CC1` [Example A76, 1-(2,6-dichlorophenyl)-3-(3-(4-((1-methylpiperidin-4-yl)oxy)phenyl)-1H-indazol-5-yl)urea], for which the IC50 on human TTK, on human PLK4 and at Aurora B was not above 5 µM throughout. Besides, the GI50 in assay [2] is not above 5 µM; in assay [3], not above 5 µM; with HT29 colon cancer cells it was not above 5 µM; in assay [4], 5 to 20 µM.
As to `COc1cc(-c2n[nH]c3ccc(NC(=O)C(c4ccsc4)N4CCCC4)cc23)ccc1N1CCN(C)CC1` (centres unmarked) [Example A10, N-(3-(3-methoxy-4-(4-methylpiperazin-1-yl)phenyl)-1H-indazol-5-yl)-2-(pyrrolidin-1-yl)-2-(thiophen-3-yl)acetamide], the IC50 at human TTK, at human PLK4 and on Aurora B was not above 5 µM in each case. Further, the GI50 in assay [1], in assay [2] and in assay [3] was not above 5 µM throughout.
Turning to `O=C(Nc1ccc2[nH]nc(-c3cccc(CN4CCOCC4)c3)c2c1)C(c1ccsc1)N1CCCC1` (centres unmarked) [Example A1, N-(3-(3-(morpholinomethyl)phenyl)-1H-indazol-5-yl)-2-(pyrrolidin-1-yl)-2-(thiophen-3-yl)acetamide], the IC50 is not above 5 µM at human TTK, not above 5 µM at human PLK4 and 5 to 50 µM at Aurora B. Further, the GI50 in assay [1], in assay [2] and in assay [3] was not above 5 µM each time.
Consider `O=C(Nc1ccc2[nH]nc(-c3ccc(NC4CCCC4)cc3)c2c1)C(c1ccsc1)N1CCCC1` (centres unmarked) [Example A70, N-(3-(4-(cyclopentylamino)phenyl)-1H-indazol-5-yl)-2-(pyrrolidin-1-yl)-2-(thiophen-3-yl)acetamide], for which the IC50 at human TTK and at human PLK4 was not above 5 µM throughout. Besides, the 50% growth inhibitory concentration (GI50) (in assay [2]; in assay [3]; with HT29 colon cancer cells; in assay [4]) was not above 5 µM throughout.
In the case of `O=C(Nc1ccc2[nH]nc(-c3ccc(N4CCOCC4)cc3)c2c1)C1CCCc2ccccc21` (centres unmarked) [Example A22, N-(3-(4-morpholinophenyl)-1H-indazol-5-yl)-1,2,3,4-tetrahydronaphthalene-1-carboxamide], the figures for the IC50 on human TTK, on human PLK4 and at Aurora B were not above 5 µM, not above 5 µM and 5 to 50 µM, respectively. Moreover, the GI50 in assay [1], in assay [2] and in assay [3] was not above 5 µM throughout.
In the case of `CN1CCN(c2ccc(-c3n[nH]c4ccc(NC(=O)C(c5ccsc5)N5CCCC5)cc34)cc2)CC1` (centres unmarked) [Example A2, N-(3-(4-(4-methylpiperazin-1-yl)phenyl)-1H-indazol-5-yl)-2-(pyrrolidin-1-yl)-2-(thiophen-3-yl)acetamide], the concentration for half-maximal inhibition (IC50) on human TTK, at human PLK4 and at Aurora B was not above 5 µM in each case. Moreover, the GI50 in assay [1], in assay [2] and in assay [3] was not above 5 µM throughout.
On to `CN(C)CCOc1ccc(-c2n[nH]c3ccc(NC(=O)C(c4ccsc4)N4CCCC4)cc23)cc1` (centres unmarked) [Example A5, N-(3-(4-(2-(dimethylamino)ethoxy)phenyl)-1H-indazol-5-yl)-2-(pyrrolidin-1-yl)-2-(thiophen-3-yl)acetamide], for which the IC50 is not above 5 µM on human TTK, not above 5 µM at human PLK4 and 5 to 50 µM at Aurora B. Besides, the GI50 in assay [1], in assay [2] and in assay [3] was not above 5 µM each time.
For `O=C(Nc1ccc2[nH]nc(-c3ccc4c(c3)OCCCO4)c2c1)C(c1ccsc1)N1CCCC1` (centres unmarked) [Example A20, N-(3-(3,4-dihydro-2H-benzo[b][1,4]dioxepin-7-yl)-1H-indazol-5-yl)-2-(pyrrolidin-1-yl)-2-(thiophen-3-yl)acetamide], the IC50 at human TTK, at human PLK4 and on Aurora B was not above 5 µM in each case. The GI50 in assay [1], in assay [2] and in assay [3] was not above 5 µM in each case.
With `CN1CCN(c2ccc(-c3n[nH]c4ccc(NC(=O)C5CCCc6ccccc65)cc34)cc2)CC1` (centres unmarked) [Example A11, N-(3-(4-(4-methylpiperazin-1-yl)phenyl)-1H-indazol-5-yl)-1,2,3,4-tetrahydronaphthalene-1-carboxamide], the IC50 at human TTK, on human PLK4 and at Aurora B was not above 5 µM each time. Further, the GI50 in assay [1], in assay [2] and in assay [3] was not above 5 µM in each case.
`CN1CCOc2cc(-c3n[nH]c4ccc(NC(=O)C(c5ccsc5)N5CCCC5)cc34)ccc21` (centres unmarked) [Example A17, N-(3-(4-methyl-3,4-dihydro-2H-benzo[b][1,4]oxazin-7-yl)-1H-indazol-5-yl)-2-(pyrrolidin-1-yl)-2-(thiophen-3-yl)acetamide]: the IC50 at human TTK, on human PLK4 and on Aurora B was not above 5 µM throughout. Moreover, the GI50 in assay [1], in assay [2] and in assay [3] was not above 5 µM throughout.
On to `COc1cc(-c2n[nH]c3ccc(NC(=O)C(c4ccsc4)N4CCCC4)cc23)ccc1OC1CCNCC1` (centres unmarked) [Example A8, N-(3-(3-methoxy-4-(piperidin-4-yloxy)phenyl)-1H-indazol-5-yl)-2-(pyrrolidin-1-yl)-2-(thiophen-3-yl)acetamide], for which the IC50 on human TTK, on human PLK4 and at Aurora B was not above 5 µM in each case. In addition, the GI50 in assay [1], in assay [2] and in assay [3] was not above 5 µM each time.
Regarding `CN1CCc2cc(-c3n[nH]c4ccc(NC(=O)C(c5ccsc5)N5CCCC5)cc34)ccc21` (centres unmarked) [Example A16, N-(3-(1-methylindolin-5-yl)-1H-indazol-5-yl)-2-(pyrrolidin-1-yl)-2-(thiophen-3-yl)acetamide], the IC50 on human TTK, on human PLK4 and on Aurora B was not above 5 µM throughout. Moreover, the GI50 in assay [1], in assay [2] and in assay [3] was not above 5 µM throughout.
